Laboratory results reported in ChEMBL document CHEMBL1131789, “Synthesis and anticonvulsant activity of 3-aryl-5H-2,3-benzodiazephine AMPA antagonists” (1999).
The source made the active and inactive calls. The rule behind the calls is not given here.

test system: Mus musculus; assay: Ability to abolish the hindlimb tonic extensor components of a maximal electroshock-induced seizure in vivo at 5 mg/kg; None mice protected; assay type: functional

Structure (SMILES)	Protection [%]
C[C@@H]1Cc2cc3c(cc2C(c2ccc(N)cc2)=NN1c1nc2ccccc2s1)OCO3	0

test system: Mus musculus; assay: Ability to abolish the hindlimb tonic extensor components of a maximal electroshock-induced seizure in vivo; NA means Not active at 10 mg/kg; assay type: functional, organism-based; parameters: dose 10 mg/kg

Structure (SMILES)	ED50
C[C@@H]1Cc2cc3c(cc2C(c2ccc(N)cc2)=NN1c1cccc2ccccc12)OCO3	inactive
C[C@@H]1Cc2cc3c(cc2C(c2ccc(I)cc2)=NN1c1ccccn1)OCO3	inactive
C[C@@H]1Cc2cc3c(cc2C(c2ccccc2)=NN1c1ccccn1)OCO3	inactive
C[C@@H]1Cc2cc3c(cc2C(c2ccc(Cl)cc2)=NN1c1ccccn1)OCO3	inactive

test system: Mus musculus; assay: Ability to abolish the hindlimb tonic extensor components of a maximal electroshock-induced seizure in vivo at 10 mg/kg; assay type: functional

Structure (SMILES)	Protection [%]
C[C@@H]1Cc2cc3c(cc2C(c2ccc(N)cc2)=NN1c1nc2ccccc2s1)OCO3	80
COC(=O)c1ccsc1N1N=C(c2ccc(N)cc2)c2cc3c(cc2C[C@H]1C)OCO3	40

test system: Mus musculus; assay: Ability to abolish the hindlimb tonic extensor components of a maximal electroshock-induced seizure in vivo; NA means Not active; assay type: functional, organism-based

Structure (SMILES)	ED50
C[C@@H]1Cc2cc3c(cc2C(c2ccc(N)cc2)=NN1c1ccc2ccccc2n1)OCO3	inactive
C[C@@H]1Cc2cc3c(cc2C(c2ccc(N)cc2)=NN1c1nccc(C(F)(F)F)n1)OCO3	inactive

test system: Mus musculus; assay: Ability to abolish the hindlimb tonic extensor components of a maximal electroshock-induced seizure in vivo; assay type: functional

Structure (SMILES)	ED50 [mg/kg]
C[C@@H]1Cc2cc3c(cc2C(c2ccc(N)cc2)=NN1c1ccccn1)OCO3	0.76
C[C@@H]1Cc2cc3c(cc2C(c2ccc(N)cc2)=NN1c1nncc2ccccc12)OCO3	7.8
C[C@@H]1Cc2cc3c(cc2C(c2ccc(N)cc2)=NN1c1ccccc1)OCO3	1.47
C[C@@H]1Cc2cc3c(cc2C(c2ccc(N)cc2)=NN1c1nc2ccccc2s1)OCO3	5
C[C@@H]1Cc2cc3c(cc2C(c2ccc(N)cc2)=NN1c1nc2ccccc2[nH]1)OCO3	3.2
CC(=O)N1N=C(c2ccc(N)cc2)c2cc3c(cc2C[C@H]1C)OCO3 [TALAMPANEL]	0.48
